Laboratory results reported in patent US20130004590A1, “ZINC OXIDE/ACID CONTAINING COMPOSITIONS AND METHODS FOR TREATING AND/OR PREVENTING ENZYMATIC IRRITATION” (priority 2011, published 2013).
Like-named read-outs stand apart in the source and are kept apart here.

Legend:
trypsin [1] = test: EnzChek protease assay: trypsin inhibition by mixtures of talc with divalent cation salts; assay type: biochemical; settings: for Hypothetically calculated additive value of salt and Talc, trypsin inhibition activities (%): Table 3, salt alone plus talc alone (8.55%)
Method: The objective of the following experiment was to determine whether and to what extent adding a divalent cation to talc inhibited trypsin activity in an in vitro assay. The inhibition of trypsin-induced cleavage of a fluorescent casein peptide was measured using the EnzChek™ protease assay kit, following manufacturer's instructions (EnzChek™ Protease Assay Kits Product Information, Revised; Molecular Probes, Eugene Oreg.). […] Trypsin working solution (Sigma, St. Louis, Mo., unit/mL) was prepared in digestion buffer provided in the assay kit. Stock solution of BODIPY FL casein (trypsin substrate, mg/mL) was prepared by adding 0.2 mL to the substrate vials (provided in kit), and the final substrate working solution (10 microgram/mL) was prepared by dilution in digestion buffer (pH 7.8). Following incubation of the trypsin, with or without the test materials, with the BODIPY fluorescent casein substrate, at room temperature for one hour, fluorescence was measured (excitation 485 nm/emission 530 nm) using a SpectraMax microtiter plate reader (Molecular Devices Corporation, Sunnyvale, Calif.) and Softmax Pro software (Molecular Devices Corporation). Each experiment was performed in three replicates.

[2] = Method: The objective of the following experiment was to determine whether and to what extent adding an acid to a formulation containing zinc oxide had on inhibition of trypsin activity in an in vitro assay. The inhibition of trypsin-induced cleavage of a fluorescent casein peptide was measured using the EnzChek™ protease assay kit, following manufacturer's instructions (EnzChek™ Protease Assay Kits Product Information, Revised; Molecular Probes, Eugene Oreg.). Briefly, mixtures of zinc oxide and acid at different concentrations were prepared in 1×PBS (pH 7.4) and their pH was recorded as listed in the Tables 5-8. Trypsin working solution (Sigma, St. Louis, Mo., unit/mL) was prepared in digestion buffer provided in the assay kit. Stock solution of BODIPY FL casein (trypsin substrate, mg/mL) was prepared by adding 0.2 mL to the substrate vials (provided in kit), and the final substrate working solution (10 microgram/mL) was prepared by dilution in digestion buffer (pH 7.8). Following incubation of the trypsin, with or without the test materials (50 μl), with the BODIPY fluorescent casein substrate, at room temperature for one hour, fluorescence was measured (excitation 485 nm/emission 530 nm) using a SpectraMax microtiter plate reader (Molecular Devices Corporation, Sunnyvale, Calif.) and Softmax Pro software (Molecular Devices Corporation). Each experiment was performed in three replicates.
trypsin [3] = test: EnzChek protease assay: trypsin inhibition by zinc oxide/acid mixtures and formulations; assay type: biochemical; settings: text b137, on Table 5
Method: Each experiment was performed in three replicates.
For preparations, samples were diluted in 1×PBS at 1:10 ratio and subjected to centrifugation at 13,200 rpm for 1 min using Eppendorf Centrifuge (Model 5415D, Eppendorf AG, Hamburg, Germany) to remove the solid formulation ingredients. The supernatants (50 μl) were used for trypsin inhibitory activity analyses as described above. For preparations, samples were diluted in 10, or 20 or 40% ethanol and subjected to centrifugation at 13,200 rpm for 1 min using Eppendorf Centrifuge (Model 5415D, Eppendorf AG, Hamburg, Germany) to remove the solid formulation ingredients. The supernatants (50 μl) were used for trypsin inhibition assay. Possible effects of ethanol solution (10, 20 or 40% ethanol) on trypsin inhibition activity were tested in the same study and found no significant impact.
For the above study, the results are an average of three independent experiments, wherein the samples, which were diluted at 1:10 ratio in 1×PBS solutions containing 10%, 20% or 40% ethanol, were tested in triplicates. The results are from an average of all conditions at the same dilution.
For the currently available product (i.e., Baby Paste 5.0, Mendelson Pharmaceuticals LLC, Mountainside, N.J.), the results are an average of a single study: sample diluted at 1:10 ratio, in 1×PBS solutions containing 10%, 20% or 40% ethanol, was tested in triplicate. […]

SMILES: CC(=O)[O-].CC(=O)[O-].O.[Ca+2] [Calcium acetate monohydrate]
- Hypothetically calculated additive value of salt and Talc, trypsin inhibition activities (%) (trypsin [1]): 23.86%

SMILES: [Ca+2].[Cl-].[Cl-] [Calcium chloride]
- Hypothetically calculated additive value of salt and Talc, trypsin inhibition activities (%) (trypsin [1]): 26.50%

SMILES: O.O.O.O.[Cl][Fe][Cl] [Iron (II) chloride tetrahydrate]
- Hypothetically calculated additive value of salt and Talc, trypsin inhibition activities (%) (trypsin [1]): 73.62%

SMILES: CC(=O)[O-].CC(=O)[O-].O.O.O.O.[Mg+2] [Magnesium acetate tetrahydrate]
- Hypothetically calculated additive value of salt and Talc, trypsin inhibition activities (%) (trypsin [1]): 9.38%

SMILES: [Cl-].[Cl-].[Mg+2] [Magnesium chloride]
- trypsin inhibitory activity, alone, in words (trypsin [1]): moderate to low levels
- Hypothetically calculated additive value of salt and Talc, trypsin inhibition activities (%) (trypsin [1]): 13.30%

SMILES: CC(=O)[O-].CC(=O)[O-].[Zn+2] [Zinc acetate dihydrate]
- Hypothetically calculated additive value of salt and Talc, trypsin inhibition activities (%) (trypsin [1]): 71.39%

SMILES: [Cl-].[Cl-].[Zn+2] [Zinc chloride]
- Hypothetically calculated additive value of salt and Talc, trypsin inhibition activities (%) (trypsin [1]): 89.62%

SMILES: [O]=[Zn] [ZnO, zinc oxide]
- pH ([2]; 0.1% ZnO, 0.01% acetic acid in 1x PBS): 7.28
- pH ([2]; 0.1% ZnO, 0.05% acetic acid in 1x PBS): 6.03
- pH ([2]; 0.1% ZnO, No acetic acid in 1x PBS): 7.61
- pH ([2]; 1% ZnO, 0.01% acetic acid in 1x PBS): 7.85
- pH ([2]; 1% ZnO, 0.05% acetic acid in 1x PBS): 6.08
- pH ([2]; 1% ZnO, No acetic acid in 1x PBS): 8.07
- protease activity of zinc oxide, in words (trypsin [3]): minimal protease activity

SMILES: CC(=O)O [acetic acid]
- pH ([2]; No ZnO, 0.01% acetic acid in 1x PBS): 6.84
- pH ([2]; No ZnO, 0.05% acetic acid in 1x PBS): 4.75
